Results on 3 compounds are retold here after patent publication US20030109581A1, “Chemical attractants for yellowjacket wasps” (priority 2001, published 2003).

SMILES strings stand for the structures.

The subject of experiment [1] is Vespula maculifrons (eastern yellowjacket). Briefly: Field trap captures, BARC-W, 7 days in September (FIG. 1). The class given is in vivo. Here is the method: (§1) Field tests were carried out using lures prepared as described in Example 1. Traps baited with various prepared lures, in addition to unbaited control traps, were hung from trees or fences at three locations: Beltsville Agricultural Research Center-West (BARC-W), Beltsville, Md.; University of Maryland Apiary; and a private residence, Silver Spring, Md., with apple trees on the property. Most tests were conducted late in the season when populations of yellowjackets were greatest. After exposure in the field for varying periods of time, traps were brought to the laboratory for sorting and counting insects by species.
In initial experiments, the equivalence of H vs. A was tested along with the synergism between IB/AA and H/T/B or A/T/B blends. […] The use of acetal (A) is considered more desirable than hexenal (H) for this type of lure because of its lower volatility and greater stability.
Polyvinyl chloride (PVC) plugs containing an about 16% load of volatiles were prepared. For purposes of example, lures containing (E)-2-hexenal diethyl acetal, A (Bedoukian, Inc., Danbury, Conn.) and linalool, L (Aldrich Chemicals, Milwaukee, Wis.) are described.
PVC resin (200 g) was mixed thoroughly with 60 ml dioctyl phthalate, a blend of 30 ml of A with 20 ml of L was poured into the plasticized PVC and mixed. […]

The subject of another experiment is Vespula maculifrons. The experiment in a line: Field trap captures, BARC-W, 9 days in September/October. The class given is in vivo. As for the experimental part: as §1
The equivalence of T vs. L was tested along with the effect of B and the possible synergism of HB. Six chemical treatments in replicates of three were tested over a period of 9 days in September/October at BARC-W: IB/AA; HB+A/T/B; IB/AA+A/T;
The test also corroborates earlier results indicating localized distribution of yellowjacket species since no V. squamosa were captured and only one individual of V. germanica was caught. The synergistic effect between IB/AA and the novel blends was also confirmed.
Polyvinyl chloride (PVC) plugs containing an about 16% load of volatiles were prepared. For purposes of example, lures containing (E)-2-hexenal diethyl acetal, A (Bedoukian, Inc., Danbury, Conn.) and linalool, L (Aldrich Chemicals, Milwaukee, Wis.) are described. […]

Turning to `CCC/C=C/C(OCC)OCC` [A, (E)-2-hexenal diethyl acetal], in experiment [1], the “equivalence of H vs. A” value was “can effectively replace H in this system”.
For the compound `OCc1ccccc1` [B, benzyl alcohol], the “effect of B on lure activity” value in the experiment on Vespula maculifrons is reported as “is not essential for lure activity”.
Turning to `C=CC(C)(O)CCC=C(C)C` (stereo not drawn) [L, linalool], the “equivalence of T vs. L” value in the experiment with Vespula maculifrons is listed as “effectively substitutes for T”.
